{
  "source": "patent US12150925B2",
  "about": "“Buthionine sulfoximine and a metallodrug for the treatment of cancer, HIV or a rheumatic disease” (Istituto Superiore di Sanità, priority 2017, dated 2024)",
  "key": {"[1]": {"system": "Supt-1 T-cells", "assay": "Viability of Supt-1 T-cells (MTS assay, FIGS. 2 and 6)", "type": "cell-based", "protocol": "FIG. 2 is a graph showing the viability of Supt-1 T-cells treated with different concentrations of auranofin (AU) or buthionine sulfoximine (BSO). Viability was measured 72 hours after treatment with the drugs at the indicated concentrations with the MTS assay. Absorbance values were normalized over untreated controls and expressed as percentage. BSO=buthionine sulfoximine. Concentrations are expressed in μM. Data are expressed as mean t SEM and were analysed by the Turkey posttest following One Way ANOVA. *P<0.05; **P<0.01 ***P<0.001; ****P<0.0001. NS: non-significant. The synergistic index (SI) is expressed where significant differences exist in comparison with the single drug treatments.\nFIG. 6 is a graph showing the viability of Supt-1 T-cells treated with different concentrations of cisplatin or buthionine sulfoximine (BSO). Viability was measured 72 hours after treatment with the drugs at the indicated concentrations with the MTS assay. Absorbance values were normalized over untreated controls and expressed as percentage. BSO=buthionine sulfoximine. Concentrations are expressed in μM; Asterisks show the significant differences [*q<0.05; **q<0.01; q is the P value corrected for multiple comparisons by controlling the False Discovery Rate (threshold for significance=q=0.05)]. NS: non-significant. The synergistic index (SI) is expressed where significant differences exist in comparison with the single drug treatments.\n(§1) In-vitro activity on activated CD4^+ T-cells and leukemia/lymphoma Methods. Resting CD4^+ T-cells, cultured T-cell leukemic Jurkat cells and Sup-T1 cells were left untreated or incubated for 24-72 hours with various concentrations of auranofin and/or buthionine sulfoximine (BSO), or chloroquine (only CD4^+ T-cells) or cisplatin (only Jurkat and Supt-T1 cells) CD4^+ T-cells were then activated by adding phytohemagglutinin (2 μg/mL). Alternatively, CD4^+ T-cells were first activated with anti-CD3/anti-CD28 beads and, after 72 hours, were left untreated or were incubated with auranofin and/or buthionine sulfoximine (BSO), or chloroquine. Cell viability was determined 24-72 hours post-activation with an MTT assay (CellTiter 96@ Non-Radioactive Cell Proliferation Assay) or MTS assay (CellTiter 960 AQueous One Solution Cell Proliferation Assay System; Promega). For the assay, 300×10^5 cells were re-suspended in 100 μL of medium and transferred to a 96-well plate. Cells were then incubated with 20 μL of a substrate solution (One Solution Reagent) for 3-4 hours in a CO2 (5%) incubator at 37° C. For the MTT assay, 100 μL of a Solubilization/Stop Solution were used to stop the reaction. Medium-only containing wells were included to serve as a blank control. Absorbance levels were recorded at 490 nm (MTS) or 570 nm (MTT) and, after subtraction of the blank, absorbance values were expressed as percentage of controls.\n(§2) Results. The results from the new dosage combinations were compared to the untreated cells as well as the cells treated with single drugs or “classical” dosages, in a multiple comparison analysis. Thus, the statistical significances shown are also significant compared to the untreated cells."}, "[2]": {"system": "Supt-1 T-cells", "assay": "Microphotographs of treated Supt-1 T-cells (FIG. 3)", "type": "cell-based", "details": "0.25 μM auranofin with submicromolar BSO (FIG. 3)", "excerpt": "FIG. 3 is microphotographs of Supt-1 T-cells treated with different concentrations of auranofin or buthionine sulfoximine."}, "[3]": {"system": "Jurkat T-cells", "assay": "Microphotographs of treated Jurkat T-cells (FIG. 5)", "type": "cell-based", "details": "auranofin at a clinically-acceptable concentration added to BSO and cisplatin (FIG. 5)", "excerpt": "FIG. 5 is microphotographs of Jurkat T-cells treated with different concentrations of cisplatin, auranofin or buthionine sulfoximine (BSO)."}, "[4]": {"system": "activated CD4^+ T-cells", "assay": "Viability of activated primary CD4+ T-cells (MTT assay, FIG. 1)", "type": "cell-based", "protocol": "FIG. 1 is a graph showing the viability of activated primary CD4^+ T-cells treated with different concentrations of auranofin and buthionine sulfoximine (BSO), measured with the MTT assay. The cells were pre-incubated with the drugs for 24 hours and then activated with phytohemagglutinin (PHA) and assayed for viability 72 hours post activation (A) or the cells were activated with αCD3-αCD28 beads and then treated for 48 h with different combinations of auranofin and BSO (B). In (A), the effects of chloroquine are shown as a matter of comparison with a drug adopted in the clinic to limit immune hyperactivation. All concentrations are expressed in μM. In-vitro activity on activated CD4^+ T-cells and leukemia/lymphoma Methods. Resting CD4^+ T-cells, cultured T-cell leukemic Jurkat cells and Sup-T1 cells were left untreated or incubated for 24-72 hours with various concentrations of auranofin and/or buthionine sulfoximine (BSO), or chloroquine (only CD4^+ T-cells) or cisplatin (only Jurkat and Supt-T1 cells) CD4^+ T-cells were then activated by adding phytohemagglutinin (2 μg/mL). Alternatively, CD4^+ T-cells were first activated with anti-CD3/anti-CD28 beads and, after 72 hours, were left untreated or were incubated with auranofin and/or buthionine sulfoximine (BSO), or chloroquine. Cell viability was determined 24-72 hours post-activation with an MTT assay (CellTiter 96@ Non-Radioactive Cell Proliferation Assay) or MTS assay (CellTiter 960 AQueous One Solution Cell Proliferation Assay System; Promega). For the assay, 300×10^5 cells were re-suspended in 100 μL of medium and transferred to a 96-well plate. Cells were then incubated with 20 μL of a substrate solution (One Solution Reagent) for 3-4 hours in a CO2 (5%) incubator at 37° C. For the MTT assay, 100 μL of a Solubilization/Stop Solution were used to stop the reaction. Medium-only containing wells were included to serve as a blank control. Absorbance levels were recorded at 490 nm (MTS) or 570 nm (MTT) and, after subtraction of the blank, absorbance values were expressed as percentage of controls. Results. The results from the new dosage combinations were compared to the untreated cells as well as the cells treated with single drugs or “classical” dosages, in a multiple comparison analysis. Thus, the statistical significances shown are also significant compared to the untreated cells."}, "[5]": {"system": "Jurkat T-cells", "assay": "Viability of Jurkat T-cells (MTT assay, FIG. 4)", "type": "cell-based", "protocol": "FIG. 4 is a graph showing the viability of Jurkat T-cells treated with different concentrations of cisplatin, auranofin and/or buthionine sulfoximine (BSO). Viability was measured 48 hours after treatment with the drugs at the indicated concentrations with the MTT assay. Absorbance values were normalized over untreated controls and expressed as percentage. Concentrations are expressed in μM. Data are expressed as mean±SEM and were. Asterisks show the significant differences [*q<0.05; *q<0.01; q is the P value corrected for multiple comparisons by controlling the False Discovery Rate (threshold for significance=q=0.05)]. NS: non-significant. The synergistic index (SI) is expressed where significant differences exist in comparison with the single drug treatments.\nas §1, §2"}, "[6]": {"system": "HIV", "assay": "Theoretical clinical example, HIV patient, with computational simulation of the viral reservoir", "design": "species or system human", "details": "auranofin 6 mg bid six months plus low-dose BSO (three one-week cycles, 0.08 g orally every 6 hours) with ART; baseline 22 copies/10^6 CD4^+ T-cells", "excerpt": "A simulation of the viral load (RNA copies/ml) and viral reservoir (L cells) dynamics in a human model is provided. The trend of productively infected cells (T*) is also shown. The simulation is based on the five differential equations model in Rong and Perelson (2009). The peaks in the viral load correspond to the periods of activation of latently infected CD4+ T-cells. For starting data see Rong and Perelson (2009). Different proliferation rates (p) are shown (day^−1), corresponding to different drug treatments, or absence of any treatment. The bottom three panels depict a scenario without the drugs, with p=1.4 day^−1. The effects of BSO in combination with auranofin at plasma molar ratios (BSO/auranofin) of 1:0.25 (top three panels), 1:0.5 (second line of panels from top), 1:1 (third line of panels from top) are simulated. The plasma concentration of auranofin is […]. The activation function adopted to simulate lymphocyte encounter with antigens is illustrated in Rong and Perelson (2009).\nThe following is a theoretical example for a typical situation wherein the BSO is used at a reduced concentration, with a clinically-acceptable dosage of auranofin to treat a patient with an HIV diagnosis.\nPatient received an HIV diagnosis in 2008. […]\nThe patient is subjected to quantification of viral DNA, the result of which is 22 copies/10^6 CD4^+ T-cells. […]"}, "[7]": {"system": "glutathione levels", "details": "Malaker et al. 1994; cited from earlier work"}, "[8]": {"system": "cellular GSH", "details": "1.5 g/m^2 BSO at 12 hour intervals for six doses, alone or with 15 mg/m^2 melphalan; cited from earlier work"}, "[9]": {"details": "5 mmol/kg (equivalent to 111.5 mg/kg) BSO 12 hours before the chemotherapeutic agent; cited from earlier work"}, "[10]": {"system": "MKN-28 cells", "details": "BSO 5, 10 and 25 mM; cisplatin 0.1-3.0 μg/ml; cited from earlier work"}, "[11]": {"system": "MKN-45 cells", "details": "BSO 5, 10 and 25 mM; cisplatin 0.01-1 μg/ml; cited from earlier work"}, "[12]": {"details": "BSO 500 mg/kg intraperitoneally; cisplatin 6 or 9 mg/kg; cited from earlier work"}, "[13]": {"system": "SIVmac251", "details": "auranofin 0.4 mg/kg/day and BSO 450 mg/kg in combination with ART; cited from earlier work"}, "[14]": {"details": "rats; cited from earlier work"}, "[15]": {"system": "murine mammary carcinoma cell line", "details": "auranofin/submicromolar BSO combination; cited from earlier work"}, "[16]": {"details": "submicromolar BSO with cisplatin 10 μM"}},
  "note": "Entries after “also recorded” stand apart in the source; their conditions may differ.",
  "data": [
    {"smiles": "CC(=O)OC[C@H]1O[C@@H]([S-])[C@H](OC(C)=O)[C@@H](OC(C)=O)[C@@H]1OC(C)=O.CCP(CC)CC.[Au+]", "note": "[auranofin]", "values": [
      {"measurement": "synergism in terms of cell viability", "setting": "[1]; only with 0.5 μM auranofin, with BSO (FIG. 2)", "value": "significant synergism"},
      {"measurement": "cell morphology", "setting": "[2]", "value": "morphological alterations linked to poor lymphoblastic cell viability"},
      {"measurement": "cell morphology", "setting": "[3]", "value": "increased the aforementioned morphological alterations"}
    ]},
    {"smiles": "CCCCS(=N)(=O)CCC(N)C(=O)O", "note": "(stereo not shown) [BSO, buthionine sulfoximine]", "values": [
      {"measurement": "effect on viability compared with clinically achievable concentrations of Chloroquine", "setting": "[4]; BSO 2 μM with auranofin", "value": "superior"},
      {"measurement": "limitation of cell viability compared with classically-described BSO concentration (250 μM)", "setting": "[4]; BSO 2 μM with auranofin", "value": "similar"},
      {"measurement": "effect with auranofin in limiting the viability of activated CD4^+ T-cells", "setting": "[4]; BSO as low as 2 μM in combination with auranofin, pre-incubated (FIG. 1A) or treated concomitantly to activation (FIG. 1B)", "value": "synergistic effect"},
      {"measurement": "effects of BSO on viability at submicromolar concentrations", "setting": "[4]; with auranofin, cells activated with αCD3-αCD28 beads, then treated 48 h (FIG. 1B)", "value": "still present"},
      {"measurement": "difference between BSO only and the same BSO concentration in the presence of auranofin", "setting": "[1]; BSO 250 μM", "value": "no significant difference"},
      {"measurement": "effect on cisplatin-induced cell death", "setting": "[1]; BSO 250 μM with cisplatin", "value": "increased cisplatin-induced cell death"},
      {"measurement": "synergistic index", "setting": "[1]; BSO 250 μM with cisplatin (FIG. 6), effect antagonistic", "value": "> 1.1"},
      {"measurement": "effect of BSO only", "setting": "[1]; BSO 250 μM, no auranofin", "value": "cytotoxic effect"},
      {"measurement": "effect of BSO on susceptibility to cisplatin", "setting": "[1]; FIG. 6", "value": "chemosensitizing effect"},
      {"measurement": "viability", "setting": "[1]; auranofin and BSO 250 μM", "value": "low viability"},
      {"measurement": "difference between combined drug treatment and the single drugs alone", "setting": "[1]; submicromolar BSO with auranofin, e.g. auranofin 0.5+BSO 0.75 μM", "value": "extremely significant difference"},
      {"measurement": "inhibition of cellular proliferation compared with BSO 250 μM", "setting": "[1]; [16]", "value": "no statistical difference"},
      {"measurement": "synergism of BSO and cisplatin", "setting": "[1]; submicromolar BSO with cisplatin 10 μM (FIG. 6)", "value": "true synergism"},
      {"measurement": "anticancer effect", "setting": "[1]; submicromolar BSO with clinically-achievable auranofin concentrations (FIGS. 2 and 3)", "value": "direct anticancer effect"},
      {"measurement": "synergism of BSO and cisplatin", "setting": "[5]; BSO (submicromolar) with cisplatin (10 μM), 48 h (FIG. 4)", "value": "Significant synergism; also recorded: true synergism"},
      {"measurement": "effect of auranofin and low concentrations of BSO on the anti-neoplastic effect of cisplatin", "setting": "[5]; BSO with auranofin and cisplatin (FIGS. 4 and 5)", "value": "increase the anti-neoplastic effect of cisplatin"},
      {"measurement": "effect of BSO on susceptibility to cisplatin", "setting": "[5]; FIG. 4", "value": "chemosensitizing effect"},
      {"measurement": "inhibition of cellular proliferation compared with BSO 250 μM", "setting": "[5]; [16]", "value": "no statistical difference"},
      {"measurement": "viral reservoir after treatment", "setting": "[6]", "value": "< 10 copies of viral DNA/million cells"},
      {"measurement": "BSO concentration required to achieve a 90% decrease in glutathione levels", "setting": "[7]", "value": 6, "unit": "µM"},
      {"measurement": "cellular GSH", "setting": "[8]", "value": "Marked depletion"},
      {"measurement": "effect on anti-cancer effects of cyclophosphamide, cisplatin or bleomycin", "setting": "[9]", "value": "increased the anti-cancer effects"},
      {"measurement": "effect of BSO pre-treatment on antitumor activity of cisplatin", "setting": "[10]", "value": "increased the antitumor activity of cisplatin"},
      {"measurement": "effect of BSO pre-treatment on antitumor activity of cisplatin", "setting": "[11]", "value": "increased the antitumor activity of cisplatin"},
      {"measurement": "effect of BSO pre-treatment on antitumor effects of cisplatin", "setting": "[12]", "value": "enhanced"},
      {"measurement": "disease outcome following suspension of all therapies", "setting": "[13]", "value": "functional cure"},
      {"measurement": "effect on nephrotoxicity of cisplatin", "setting": "[14]", "value": "reduce the nephrotoxicity"},
      {"measurement": "directly cytotoxic/anticancer effect", "setting": "[15]", "value": "not able to detect"}
    ]}
  ]
}
